In patent US20080058352A1, “Fungicidal Mixtures” (priority 2004, published 2008):

Test system: Pyrenophora teres
Test: activity against net blotch of barley caused by Pyrenophora teres, 5 day protective application
Type: in vivo, Pyrenophora [syn. Drechslera] teres on barley seedlings
Conditions: individual active compound, untreated control 90% infection
Experimental: The active compounds, separately or jointly, were prepared as a stock solution comprising 25 mg of active compound which was made up to 10 ml using a mixture of acetone and/or DMSO and the emulsifier Uniperol® EL (wetting agent having an emulsifying and dispersing action based on ethoxylated alkylphenols) in a ratio by volume of solvent/emulsifier of 99:1. The mixture was then made up to 100 ml with water. This stock solution was diluted with the solvent/emulsifier/water mixture described to give the concentration of active compound stated below. Alternatively, the active compounds were employed as a commercial finished formulation and diluted with water to the stated concentration of active compound.
Use example—activity against net blotch of barley caused by Pyrenophora teres, 5 day protective application.
Leaves of potted barley seedlings were sprayed to runoff point with an aqueous suspension having the concentration of active compound stated below. 5 days after the application, the test plants were inoculated with an aqueous spore suspension of Pyrenophora [syn. Drechslera] teres, the net blotch pathogen. The test plants were then placed in a greenhouse at temperatures between 20 and 24° C. and 95 to 100% relative atmospheric humidity. After 6 days, the extent of the development of the disease was determined visually in % infection of the total leaf area.
The visually determined percentages of infected leaf areas were converted into efficacies in % of the untreated control:
The efficacy (E) is calculated as follows using Abbot's formula:
E=(1−α/β)·100 • α corresponds to the fungal infection of the treated plants in % and • β corresponds to the fungal infection of the untreated (control) plants in %
An efficacy of 0 means that the infection level of the treated plants corresponds to that of the untreated control plants; an efficacy of 100 means that the treated plants were not infected.
The expected efficacies of mixtures of active compounds were determined using Colby's formula (Colby, S. R. “Calculating synergistic and antagonistic responses of herbicide combinations”, Weeds, 15, 20-22, 1967) and compared with the observed efficacies.
E=x+y−x·y/100 • E expected efficacy, expressed in % of the untreated control, when the using the mixture of the active compounds A and B at the concentrations a and b • x efficacy, expressed in % of the untreated control, when using the active compound A at the concentration a • y efficacy, expressed in % of the untreated control, when using the active compound B at the concentration b

Row | Structure (SMILES) | Efficacy in % of the untreated control (0.25 ppm in the spray liquor) [%] | Efficacy in % of the untreated control (1 ppm in the spray liquor) [%] | Efficacy in % of the untreated control (4 ppm in the spray liquor) [%]
1 | CC1CCN(c2c(-c3c(F)cc(F)cc3F)c(Cl)nc3ncnn23)CC1 [I, 5-chloro-7-(4-methylpiperidin-1-yl)-6-(2,4,6-trifluorophenyl)[1,2,4]triazolo[1,5-a]pyrimidine] | 0 | 0 | 33
2 | CC(C)CC(C)c1sccc1NC(=O)c1cn(C)nc1C(F)(F)F (stereo not drawn) [IIA.11, penthiopyrad] | 0 | 33 | 56
